Values joined by “and” are separate entries in the source; they are usually repeats but may differ in a detail not shown here. Equal entries are not always repeated. “Also recorded” adds a separate entry of the source. Bounds are passed on as bounds.

Here are results for eight compounds from PMC5603535, “A network integration approach for drug-target interaction prediction and computational drug repositioning from heterogeneous information” (Nature Communications, 2017).

The target in assay [1] is T1, COX-2 (Mus musculus, UniProt Q05769).
T1 construct: the tissue extracts from the mouse kidney and the peritoneal macrophages; from tissue; host or cells: mouse kidney and thioglycollate-elicited peritoneal macrophages (C57BL/6J), homogenate supernatant
T1 sequence (Q05769 18-604): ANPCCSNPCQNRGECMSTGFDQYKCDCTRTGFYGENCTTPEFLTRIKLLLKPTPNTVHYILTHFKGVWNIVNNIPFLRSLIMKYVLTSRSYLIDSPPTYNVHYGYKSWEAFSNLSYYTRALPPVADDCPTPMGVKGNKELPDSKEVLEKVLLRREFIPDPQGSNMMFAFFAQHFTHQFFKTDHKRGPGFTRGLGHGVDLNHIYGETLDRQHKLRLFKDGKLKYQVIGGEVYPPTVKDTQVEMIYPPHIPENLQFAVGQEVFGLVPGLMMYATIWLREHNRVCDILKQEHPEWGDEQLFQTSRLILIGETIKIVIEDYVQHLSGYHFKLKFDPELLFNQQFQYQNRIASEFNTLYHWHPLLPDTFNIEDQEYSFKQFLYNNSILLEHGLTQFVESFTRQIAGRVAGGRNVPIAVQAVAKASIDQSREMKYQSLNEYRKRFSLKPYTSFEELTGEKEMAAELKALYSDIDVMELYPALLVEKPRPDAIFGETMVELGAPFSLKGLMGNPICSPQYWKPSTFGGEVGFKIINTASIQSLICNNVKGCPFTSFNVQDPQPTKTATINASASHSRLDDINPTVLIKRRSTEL
Kind of assay: COX selective inhibition assay on tissue extracts (COX fluorescent activity, distinguished with SC-560/Dup-697): COX-2. Format: biochemical. To be noted: mouse peritoneal macrophage lysates. On the procedure: (§1) Next, the tissue extracts from the mouse kidney and the peritoneal macrophages were used for COX selective inhibition assays. […] To further evaluate the selectivity of these predicted drugs on COX-1 and COX-2, we also used the human recombinant enzyme assays to measure the levels of PGE 2 under COX-1 and COX-2 catalyzes, respectively.
(§2) Peritoneal macrophages were isolated from peritoneum by lavage using 20 ml Dulbecco's modified Eagle’s medium (DMEM) and seeded into six-well plates using […] in DMEM of 10% fetal bovine serum (FBS). Non-adherent cells were removed 6 h later, whereas adherent cells were refed with DMEM of 10% FBS and allowed to recover overnight. […] Cells were harvested for subsequent analysis.
(§3) Following stimulation, kidneys were harvested from mice, and macrophages from the above treatment were homogenized in 5 ml of cold phosphate-buffered saline (PBS) containing protease inhibitors and centrifuged at 10,000×g for 15 min at 4 °C. The supernatant was assayed by the COX fluorescent activity assay kit according to the manufacturer’s instructions.

Assay [2] concerns the target T2, COX-1 (Mus musculus, UniProt P22437).
T2 construct: the tissue extracts from the mouse kidney and the peritoneal macrophages; from tissue; host or cells: mouse kidney and thioglycollate-elicited peritoneal macrophages (C57BL/6J), homogenate supernatant
T2 sequence (P22437 27-602): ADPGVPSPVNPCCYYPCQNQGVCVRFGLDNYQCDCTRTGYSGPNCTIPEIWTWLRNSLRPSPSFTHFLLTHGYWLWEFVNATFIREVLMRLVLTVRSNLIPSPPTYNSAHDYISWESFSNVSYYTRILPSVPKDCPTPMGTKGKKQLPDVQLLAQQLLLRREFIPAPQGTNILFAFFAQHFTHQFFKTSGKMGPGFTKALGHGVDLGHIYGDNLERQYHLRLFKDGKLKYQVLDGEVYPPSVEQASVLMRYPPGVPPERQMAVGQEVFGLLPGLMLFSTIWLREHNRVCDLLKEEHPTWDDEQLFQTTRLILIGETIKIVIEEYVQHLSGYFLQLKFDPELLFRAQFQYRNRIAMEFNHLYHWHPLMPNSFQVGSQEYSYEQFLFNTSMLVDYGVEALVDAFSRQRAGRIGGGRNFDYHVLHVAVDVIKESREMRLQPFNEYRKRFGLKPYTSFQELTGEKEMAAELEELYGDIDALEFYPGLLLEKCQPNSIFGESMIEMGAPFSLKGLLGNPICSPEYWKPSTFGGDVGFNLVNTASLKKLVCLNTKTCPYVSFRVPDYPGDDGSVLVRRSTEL
Briefly: COX selective inhibition assay on tissue extracts (COX fluorescent activity, distinguished with SC-560/Dup-697): COX-1. To be noted: mouse peritoneal macrophage lysates. Format: biochemical. How it is done: as §1, §2, §3

Assay [3] has as its system LPS-stimulated peritoneal macrophages. Kind of assay: RT-PCR of proinflammatory factors in LPS-stimulated peritoneal macrophages. The conditions noted are these: LPS 10 ng/ml. Format: cell-based, mouse. How it is done: Lipopolysaccharide (LPS) was used to stimulate the cultured peritoneal macrophages for the cellular inflammation model.
as §2
Total RNA was extracted from the whole-cell lysates using the Trnzol-A^+ reagent (Tiangen, Cat. no. DP421, China). Reverse transcription was performed using TIANScript RT Kit (Tiangen, Cat. no. KR104-02, China). All real-time PCR reactions were carried out on ABI ViiA 7 Real-Time System (Life Technologies, USA) using TransStart Top Green qPCR SuperMix (Transgen, Cat. no. AQ131-03, China). The formula 2^−ΔΔCt was used to calculate the relative expression. The expression of the housekeeping gene GAPDH was used as an internal control.

Assay [4] concerns the target T3, COX-2 (Homo sapiens, UniProt P35354).
T3 sequence (P35354 18-604): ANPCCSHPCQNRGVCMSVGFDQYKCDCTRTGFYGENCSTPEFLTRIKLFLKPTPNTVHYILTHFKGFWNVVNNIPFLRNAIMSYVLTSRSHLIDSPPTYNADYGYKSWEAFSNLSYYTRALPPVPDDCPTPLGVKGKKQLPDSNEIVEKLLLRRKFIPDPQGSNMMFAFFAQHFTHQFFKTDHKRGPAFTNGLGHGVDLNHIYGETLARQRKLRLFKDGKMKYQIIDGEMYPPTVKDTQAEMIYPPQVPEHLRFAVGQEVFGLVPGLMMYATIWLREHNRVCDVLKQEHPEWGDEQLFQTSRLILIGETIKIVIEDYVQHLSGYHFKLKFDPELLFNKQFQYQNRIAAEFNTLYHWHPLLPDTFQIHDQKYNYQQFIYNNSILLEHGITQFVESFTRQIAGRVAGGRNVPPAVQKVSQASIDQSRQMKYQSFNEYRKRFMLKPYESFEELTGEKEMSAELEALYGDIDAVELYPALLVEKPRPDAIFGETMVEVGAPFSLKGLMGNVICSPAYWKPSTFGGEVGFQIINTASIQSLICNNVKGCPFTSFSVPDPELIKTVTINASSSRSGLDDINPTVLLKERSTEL
Kind of assay: Human recombinant enzyme assay (PGE2 by ELISA): COX-2. It counts as biochemical. To be noted: PGE2 levels, 10 μM arachidonic acid. How it is done:
as §1
(§4) Then the 10 μM arachidonic acid was added to start the reaction and allowed the process to proceed for 10 min. The reaction was terminated by diluting the reaction into buffer containing 25 μM indomethacin. The final levels of PGE 2 were measured by ELISA.
On the technique in general: ELISA stands for enzyme-linked immunosorbent assay.

For assay [5], the target named is T3, COX-2. To be noted: compounds at their IC50 concentrations, 2 h.
A further assay concerns COX. Briefly: COX fluorescent activity assay on mouse kidney lysates. Format: biochemical. How it is done: We further sought to experimentally validate the bioactivities of the COX inhibitors predicted by DTINet (Methods). First, we tested their inhibitory potencies on the mouse kidney lysates using the COX fluorescent activity assays.
as §3

A further assay concerns alpha2-containing GlyRs. Further details: method as in Thio et al., 2003. The conditions noted are these: embryonic mouse hippocampal neurons, low-affinity binding manner, ref Thio et al., 2003; cited from earlier work.
Another assay has as its target recombinant human COX-1 (Homo sapiens, UniProt P23219). Briefly: Human recombinant enzyme assay (PGE2 by ELISA): COX-1. Format: biochemical. To be noted: PGE2 levels, 10 μM arachidonic acid. How it is done:
as §1, §4

Another assay relates to GlyRs. Further details: method as in Liu et al., 2009. To be noted: rat hippocampal neurons, ref Liu et al., 2009; cited from earlier work.
Assay [6] deals with GABA A-subtype (GABA-A) receptors. Further details: method as in ref 28 (Wassef et al., 2003). To be noted: previous studies, ref 28 (Wassef et al., 2003); cited from earlier work.
Assay [7] deals with GABA B-subtype (GABA-B) receptors. Further details: method as in ref 27 (Wu et al., 2011). The conditions noted are these: previous studies, ref 27 (Wu et al., 2011); cited from earlier work.
Assay [8] relates to COX-1. The conditions noted are these: read-out: IC50 COX-1; common NSAIDs; cited from earlier work.
For assay [9], the system named is COX-2. To be noted: cited from earlier work.

recombinant human COX-1, sequence (P23219 24-599): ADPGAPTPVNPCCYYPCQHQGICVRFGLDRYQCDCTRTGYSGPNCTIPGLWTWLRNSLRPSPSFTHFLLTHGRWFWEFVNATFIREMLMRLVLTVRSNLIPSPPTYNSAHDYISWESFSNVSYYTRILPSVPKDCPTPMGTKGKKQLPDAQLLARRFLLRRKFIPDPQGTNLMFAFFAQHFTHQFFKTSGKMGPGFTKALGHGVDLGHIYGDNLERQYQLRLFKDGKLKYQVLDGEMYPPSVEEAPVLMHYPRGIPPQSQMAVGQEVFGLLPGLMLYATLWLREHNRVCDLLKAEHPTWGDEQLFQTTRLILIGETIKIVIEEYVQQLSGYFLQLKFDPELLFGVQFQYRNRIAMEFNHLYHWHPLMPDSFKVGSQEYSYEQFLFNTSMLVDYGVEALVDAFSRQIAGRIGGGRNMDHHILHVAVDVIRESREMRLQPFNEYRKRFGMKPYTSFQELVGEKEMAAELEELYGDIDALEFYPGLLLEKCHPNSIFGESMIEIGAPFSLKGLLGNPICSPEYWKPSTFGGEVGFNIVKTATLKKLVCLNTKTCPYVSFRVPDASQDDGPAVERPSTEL

The IC50 is the concentration at which inhibition is half-maximal. Take `NCCCC(O)(P(=O)(O)O)P(=O)(O)O` [Alendronate]: on COX-2 [1], the “Relative COX activity inhibition (%) COX-2” value came to 43%. Besides, the “Relative COX activity inhibition (%) COX-1” value on COX-1 [2] is given as 57%. The “IL-12p35 production induced by LPS (mRNA, RT-PCR)” value in assay [3] is recorded as “significantly inhibited”. For the same compound, the IC50 stood at 184 µM at COX-2 [4] and 160 µM in the assay on COX. Further, the “inhibition of the binding of [3H] celecoxib to COX-2” value (“inhibition of the binding … to COX-2” below) on COX-2 [5] is reported as approximately 40.67%.
Turning to `CNC1=Nc2ccc(Cl)cc2C(c2ccccc2)=[N+]([O-])C1` [Chlordiazepoxide], in the assay with alpha2-containing GlyRs, the “effect on alpha2-containing GlyRs” value is given as “block”.
Regarding `CCCNC(=O)NS(=O)(=O)c1ccc(Cl)cc1` [Chlorpropamide], the “Relative COX activity inhibition (%) COX-2” value on COX-2 [1] was 63%. The “Relative COX activity inhibition (%) COX-1” value on COX-1 [2] stood at 37%. Moreover, the IC50 on COX-2 [4] was 152 µM; at recombinant human COX-1, 224 µM; in the assay on COX it was 290 µM and ~300 µM. Moreover, the “inhibition of the binding … to COX-2” value on COX-2 [5] was approximately 14.00%.
As to `CN1CCN(C2=Nc3cc(Cl)ccc3Nc3ccccc32)CC1` [Clozapine], in the assay with GlyRs, the “effect on GlyRs” value is given as “non-competitive antagonist”. Moreover, in assay [6], the “effect on GABA-A receptors in the cortex” value is listed as “antagonize”. For the same compound, the “interaction with GABA-B receptors” value in [7] is recorded as “direct interaction”.
With `O=C1CN=C(c2ccccc2)c2cc([N+](=O)[O-])ccc2N1` [Nitrazepam], the “effect on alpha2-containing GlyRs” value with alpha2-containing GlyRs was “block”.
As for `CCCc1nc2c(C)cc(-c3nc4ccccc4n3C)cc2n1Cc1ccc(-c2ccccc2C(=O)O)cc1` [Telmisartan], the “Relative COX activity inhibition (%) COX-2” value at COX-2 [1] was 37%. Also, the “Relative COX activity inhibition (%) COX-1” value at COX-1 [2] is reported as 63%. Moreover, in [3], the “IL-12p35 production induced by LPS (mRNA, RT-PCR)” value is listed as “significantly inhibited; also recorded: much stronger suppression effect”; the “LPS induced expression of IL-6 (mRNA, RT-PCR)” value is “strong inhibitory effect”; the “LPS induced expression of TNF-α (mRNA, RT-PCR)” value was “strong inhibitory effect”; the “induction of IL-1β (mRNA, RT-PCR)” value is “strongest suppression effect”. Moreover, at COX-2 [4], the IC50 was 91.8 µM. In addition, the “inhibition of the binding … to COX-2” value at COX-2 [5] is given as “about 48.33%”. The IC50 on recombinant human COX-1 came to 42 µM. In addition, the midpoint of inhibition with COX, the IC50, lay at 56.1 µM.
As for `CC(C)Cc1ccc(C(C)C(=O)O)cc1` (stereo not drawn) [ibuprofen], in the assay on COX-1 [8], the IC50 is […].
On to `CS(=O)(=O)c1ccc(C2=C(c3ccccc3)C(=O)OC2)cc1` [rofecoxib], for which the values for the IC50 with COX-2 [9] and in the assay with COX-1 [8] were 25 µM and […], respectively.
